Our source for the IC50 values is patent publication US20240101576A1, “HETEROCYCLIC INHIBITORS OF EGFR AND/OR HER2, FOR USE IN THE TREATMENT OF CANCER” (Scorpion Therapeutics, Inc., priority 2020, published 2024).

Holding throughout (type): cell-based
The target of one experiment is T1, EGFR WT (Ba/F3 cells) (Homo sapiens, UniProt P00533).
T1 construct: expressed in transfected cells; host or cells: Ba/F3 (murine pro-B cells), retroviral transduction, puromycin selection, maintained with EGF
The experiment can be described thus: Inhibitor activity on EGFR-dependent cell growth (CellTiter-Glo, 72 h), Ba/F3 EGFR WT. The settings on record: read-out: BaF3 WT IC50. The essentials:
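This growth assay used Ba/F3 cells that depend on wild-type EGFR and are kept in EGF without IL3. Compounds were made up as 10 mM DMSO stocks and diluted 3-fold over 10 points. 120 nL went onto 600 cells/well. After 72 hours, 40 μL CellTiter-Glo was added and luminescence read on EnVision after 30 min.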

Experiment [1] concerns the target T2, EGFR exon 20 NPG Ins D770_N771 (Ba/F3 cells) (Homo sapiens, UniProt P00533, INS770NPG).
T2 construct: expressed in transfected cells; host or cells: Ba/F3 (murine pro-B cells), retroviral transduction, puromycin selection, IL3-independent pool
The experiment can be described thus: Inhibitor activity on EGFR-dependent cell growth (CellTiter-Glo, 72 h), Ba/F3 EGFR exon 20 NPG Ins. The conditions noted are these: read-out: BaF3 NPG IC50. The essentials: (§1)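 IC50s derive from a sigmoidal dose–response fit of CellTiter-Glo signal. The signal was normalised between […]-treated cells and cell-free medium. Ba/F3 mutant-EGFR cells, seeded at 400–800/well depending on the line, had 72 h of exposure to a 10-point, 3-fold compound series.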

Experiment [2] concerns the target T2, EGFR exon 20 NPG Ins D770_N771 (Ba/F3 cells). The experiment can be described thus: Inhibitor activity on EGFR phosphorylation (pEGFR AlphaLISA, 2 h), Ba/F3 EGFR exon 20 NPG Ins. The text has this: Example B. Inhibitor Activity on EGFR phosphorylation (pEGFR)
EGFR mutant Ba/F3 cells were generated by transduction with retrovirus containing vectors expressing EGFR L858R, EGFR exon 19del, EGFR L858R/C797S, EGFR exon 20 NPG Ins D770_N771, EGFR exon 20 ASV Ins V769_D770, or EGFR exon 20 SVD Ins D770_N771 genes along with a puromycin selection marker. Transduced cells are selected with puromycin for 7 days and are then be transferred into culture media without Interleukin 3 (IL3). Surviving cells are confirmed to express EGFR by Western blot and maintained as a pool. CUTO14 cells were obtained from Dr. Robert C. Doebele at the University of Colorado. The IC50 date are included in Table 6 and Table 7.
1.1 Cells are harvested from flask into cell culture medium and the cell number counted.
1.2 Cells are diluted with culture medium to the desired density and 40 μL of cell suspension is added into each well of 384-well cell culture plate and the seeding density is 50K cells/well (Ba/F3) or 12.5K cells/well (CUTO14).
2 Compound Preparation and Treatment
2.1 Test compounds are dissolved to 10 mM in a DMSO stock solution. 45 μL of stock solution is transferred to a 384 polypropylene plate (pp-plate). Perform 3-fold, 10-point dilution via transferring 15 μL compound into 30 μL DMSO using a TECAN (EVO200) liquid handler.
2.2 Spin plates at room temperature at 1,000 RPM for 1 minute.
2.3 Transfer 5 nL of diluted compound from compound source plate into the cell plate.
2.4 After compound treatment for 2 hours, perform pEGFR detection by AlphaLISA for compound treatment plates as described in “Detection” section.
3 Detection by pEGFR AlphaLISA (Perkin-Elmer)
3.1 Plates are removed from incubators and equilibrated at room temperature for 10 minutes, and media was removed
3.2 10 μL of lysis buffer is added and plates shaken at 600 rpm for 1 hr.
3.3 Prepare acceptor mix just before use and dispense 5 μL of acceptor mix to all the wells. Shake 350 rpm for Ihr in the dark
3.4 Prepare donor mix under low light conditions prior to use. Dispense 5 μL of donor mix to all the wells. Mix well on the shaker, seal and wrap in aluminum foil and incubate 1.5 hrs at room temperature in the dark
3.5 Transfer 18.5 μL mixture to OptiPlate 384, and read using an Envision. The IC50 date were included in Table 6 and Table 7.

In experiment [3] the target is T3, EGFR exon 20 ASV Ins V769_D770 (Ba/F3 cells) (Homo sapiens, UniProt P00533, INS769ASV).
T3 construct: expressed in transfected cells; host or cells: Ba/F3 (murine pro-B cells), retroviral transduction, puromycin selection, IL3-independent pool
The experiment can be described thus: Inhibitor activity on EGFR-dependent cell growth (CellTiter-Glo, 72 h), Ba/F3 EGFR exon 20 ASV Ins. The conditions noted are these: read-out: BaF3 ASV IC50. In short, it runs like this:
as §1

The target in experiment [4] is T4, EGFR exon 20 SVD Ins D770_N771 (Ba/F3 cells) (Homo sapiens, UniProt P00533, INS770SVD).
T4 construct: expressed in transfected cells; host or cells: Ba/F3 (murine pro-B cells), retroviral transduction, puromycin selection, IL3-independent pool
The experiment can be described thus: Inhibitor activity on EGFR-dependent cell growth (CellTiter-Glo, 72 h), Ba/F3 EGFR exon 20 SVD Ins. The settings on record: read-out: BaF3 SVD IC50. The essentials:
as §1

For experiment [5], the target named is T5, EGFR exon 20 FQEA Ins A763_V764 (Ba/F3 cells) (Homo sapiens, UniProt P00533, INS763FQEA).
T5 construct: expressed in transfected cells; host or cells: Ba/F3 (murine pro-B cells), retroviral transduction, puromycin selection, IL3-independent pool
The experiment can be described thus: Inhibitor activity on EGFR-dependent cell growth (CellTiter-Glo, 72 h), Ba/F3 EGFR exon 20 FQEA Ins. The settings on record: read-out: BaF3 FQEA IC50. The essentials: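 Cell viability was measured by CellTiter-Glo after a three-day treatment. The IL3-free Ba/F3 lines carried L858R, L858R/C797S, exon 19 deletion or FQEA insertion EGFR and were seeded at 400, 600, 800 and 800 cells/well respectively.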

T2 sequence (P00533 with tags, fused parts or gaps INS770NPG): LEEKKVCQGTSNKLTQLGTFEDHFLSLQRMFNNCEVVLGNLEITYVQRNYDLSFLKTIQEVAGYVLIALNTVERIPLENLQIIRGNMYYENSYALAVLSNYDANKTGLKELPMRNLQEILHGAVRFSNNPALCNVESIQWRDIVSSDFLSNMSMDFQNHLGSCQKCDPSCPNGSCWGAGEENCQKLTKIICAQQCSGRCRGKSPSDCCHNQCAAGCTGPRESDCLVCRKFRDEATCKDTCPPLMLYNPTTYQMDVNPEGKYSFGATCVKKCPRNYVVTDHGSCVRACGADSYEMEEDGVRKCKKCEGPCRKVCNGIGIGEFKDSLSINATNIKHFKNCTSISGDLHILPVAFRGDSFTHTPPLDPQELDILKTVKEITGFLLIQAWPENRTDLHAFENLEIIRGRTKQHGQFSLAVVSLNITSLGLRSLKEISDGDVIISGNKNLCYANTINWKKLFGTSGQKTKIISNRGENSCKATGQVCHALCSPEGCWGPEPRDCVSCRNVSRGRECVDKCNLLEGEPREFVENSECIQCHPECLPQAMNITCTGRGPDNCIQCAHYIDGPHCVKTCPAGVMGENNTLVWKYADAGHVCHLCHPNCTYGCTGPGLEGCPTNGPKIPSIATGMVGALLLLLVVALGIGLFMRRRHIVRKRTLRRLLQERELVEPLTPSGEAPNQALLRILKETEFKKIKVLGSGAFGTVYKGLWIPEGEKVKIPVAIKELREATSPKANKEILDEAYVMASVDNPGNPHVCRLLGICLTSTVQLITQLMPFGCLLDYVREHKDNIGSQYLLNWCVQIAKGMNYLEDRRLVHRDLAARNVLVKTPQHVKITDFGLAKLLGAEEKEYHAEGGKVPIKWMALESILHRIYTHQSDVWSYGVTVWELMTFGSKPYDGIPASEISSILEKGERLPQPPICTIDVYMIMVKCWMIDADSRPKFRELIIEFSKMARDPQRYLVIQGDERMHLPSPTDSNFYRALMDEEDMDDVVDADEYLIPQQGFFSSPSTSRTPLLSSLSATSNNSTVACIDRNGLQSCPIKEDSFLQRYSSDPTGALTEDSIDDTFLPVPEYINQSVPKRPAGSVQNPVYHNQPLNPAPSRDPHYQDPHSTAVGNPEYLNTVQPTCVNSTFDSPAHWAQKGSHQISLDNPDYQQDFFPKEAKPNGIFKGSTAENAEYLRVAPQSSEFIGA
T1 sequence (P00533 25-1210): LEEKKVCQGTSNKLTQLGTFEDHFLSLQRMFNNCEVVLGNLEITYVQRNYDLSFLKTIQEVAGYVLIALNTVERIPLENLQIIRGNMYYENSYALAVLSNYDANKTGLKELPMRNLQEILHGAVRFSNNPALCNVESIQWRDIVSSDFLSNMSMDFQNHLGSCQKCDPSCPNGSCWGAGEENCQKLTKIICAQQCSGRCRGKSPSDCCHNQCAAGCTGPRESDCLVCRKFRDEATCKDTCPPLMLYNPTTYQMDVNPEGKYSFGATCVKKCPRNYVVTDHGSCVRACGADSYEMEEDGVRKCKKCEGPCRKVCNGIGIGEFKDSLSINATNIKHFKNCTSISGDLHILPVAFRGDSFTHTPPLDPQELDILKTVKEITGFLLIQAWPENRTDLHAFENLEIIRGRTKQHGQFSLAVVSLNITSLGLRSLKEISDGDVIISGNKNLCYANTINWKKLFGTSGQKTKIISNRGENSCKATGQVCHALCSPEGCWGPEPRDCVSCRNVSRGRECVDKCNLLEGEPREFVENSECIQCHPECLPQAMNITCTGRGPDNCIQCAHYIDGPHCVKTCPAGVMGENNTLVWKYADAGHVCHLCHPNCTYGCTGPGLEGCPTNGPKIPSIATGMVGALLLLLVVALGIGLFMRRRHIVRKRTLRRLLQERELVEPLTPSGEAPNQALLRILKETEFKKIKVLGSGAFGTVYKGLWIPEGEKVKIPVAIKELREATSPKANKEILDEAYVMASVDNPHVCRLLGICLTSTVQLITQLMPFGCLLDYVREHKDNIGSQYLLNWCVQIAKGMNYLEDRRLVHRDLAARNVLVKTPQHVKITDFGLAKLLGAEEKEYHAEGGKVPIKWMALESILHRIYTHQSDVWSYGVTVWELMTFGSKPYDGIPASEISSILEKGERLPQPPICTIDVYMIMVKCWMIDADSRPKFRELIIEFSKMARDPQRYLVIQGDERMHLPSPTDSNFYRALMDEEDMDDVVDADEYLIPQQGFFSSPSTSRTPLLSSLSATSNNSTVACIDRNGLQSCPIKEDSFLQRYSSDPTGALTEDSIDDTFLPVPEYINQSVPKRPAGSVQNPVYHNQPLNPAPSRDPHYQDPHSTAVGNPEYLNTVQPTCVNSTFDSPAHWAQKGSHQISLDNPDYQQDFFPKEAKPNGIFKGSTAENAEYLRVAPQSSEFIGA
T4 sequence (P00533 with tags, fused parts or gaps INS770SVD): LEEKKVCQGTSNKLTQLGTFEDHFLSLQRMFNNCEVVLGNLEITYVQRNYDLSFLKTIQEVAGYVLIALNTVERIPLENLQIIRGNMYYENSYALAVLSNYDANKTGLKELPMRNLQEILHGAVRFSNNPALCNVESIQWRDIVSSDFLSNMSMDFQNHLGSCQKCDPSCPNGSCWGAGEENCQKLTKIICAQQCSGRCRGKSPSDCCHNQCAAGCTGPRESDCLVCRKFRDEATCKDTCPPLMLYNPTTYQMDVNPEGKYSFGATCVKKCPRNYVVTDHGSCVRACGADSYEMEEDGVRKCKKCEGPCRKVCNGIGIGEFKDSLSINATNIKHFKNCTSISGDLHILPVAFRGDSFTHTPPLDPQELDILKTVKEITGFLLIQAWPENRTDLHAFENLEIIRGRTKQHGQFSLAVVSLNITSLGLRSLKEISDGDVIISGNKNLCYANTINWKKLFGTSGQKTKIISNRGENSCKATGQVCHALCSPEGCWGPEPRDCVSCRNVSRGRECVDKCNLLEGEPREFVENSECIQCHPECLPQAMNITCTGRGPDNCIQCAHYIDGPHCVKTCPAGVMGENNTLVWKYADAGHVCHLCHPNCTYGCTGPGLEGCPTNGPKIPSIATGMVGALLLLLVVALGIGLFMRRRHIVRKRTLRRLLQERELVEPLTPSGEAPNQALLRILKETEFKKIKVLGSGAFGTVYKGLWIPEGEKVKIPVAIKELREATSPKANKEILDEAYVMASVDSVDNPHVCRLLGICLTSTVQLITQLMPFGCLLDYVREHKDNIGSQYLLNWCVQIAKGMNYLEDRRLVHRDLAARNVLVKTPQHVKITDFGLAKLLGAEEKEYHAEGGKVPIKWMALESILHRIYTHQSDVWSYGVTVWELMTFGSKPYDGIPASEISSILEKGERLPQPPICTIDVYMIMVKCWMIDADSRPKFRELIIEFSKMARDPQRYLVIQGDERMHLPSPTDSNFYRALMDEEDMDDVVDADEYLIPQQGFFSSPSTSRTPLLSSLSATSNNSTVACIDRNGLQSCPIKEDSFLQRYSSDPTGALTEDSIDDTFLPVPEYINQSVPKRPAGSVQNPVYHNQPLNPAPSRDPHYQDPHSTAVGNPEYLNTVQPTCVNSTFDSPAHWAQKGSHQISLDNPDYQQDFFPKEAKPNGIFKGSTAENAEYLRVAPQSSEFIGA
T3 sequence (P00533 with tags, fused parts or gaps INS769ASV): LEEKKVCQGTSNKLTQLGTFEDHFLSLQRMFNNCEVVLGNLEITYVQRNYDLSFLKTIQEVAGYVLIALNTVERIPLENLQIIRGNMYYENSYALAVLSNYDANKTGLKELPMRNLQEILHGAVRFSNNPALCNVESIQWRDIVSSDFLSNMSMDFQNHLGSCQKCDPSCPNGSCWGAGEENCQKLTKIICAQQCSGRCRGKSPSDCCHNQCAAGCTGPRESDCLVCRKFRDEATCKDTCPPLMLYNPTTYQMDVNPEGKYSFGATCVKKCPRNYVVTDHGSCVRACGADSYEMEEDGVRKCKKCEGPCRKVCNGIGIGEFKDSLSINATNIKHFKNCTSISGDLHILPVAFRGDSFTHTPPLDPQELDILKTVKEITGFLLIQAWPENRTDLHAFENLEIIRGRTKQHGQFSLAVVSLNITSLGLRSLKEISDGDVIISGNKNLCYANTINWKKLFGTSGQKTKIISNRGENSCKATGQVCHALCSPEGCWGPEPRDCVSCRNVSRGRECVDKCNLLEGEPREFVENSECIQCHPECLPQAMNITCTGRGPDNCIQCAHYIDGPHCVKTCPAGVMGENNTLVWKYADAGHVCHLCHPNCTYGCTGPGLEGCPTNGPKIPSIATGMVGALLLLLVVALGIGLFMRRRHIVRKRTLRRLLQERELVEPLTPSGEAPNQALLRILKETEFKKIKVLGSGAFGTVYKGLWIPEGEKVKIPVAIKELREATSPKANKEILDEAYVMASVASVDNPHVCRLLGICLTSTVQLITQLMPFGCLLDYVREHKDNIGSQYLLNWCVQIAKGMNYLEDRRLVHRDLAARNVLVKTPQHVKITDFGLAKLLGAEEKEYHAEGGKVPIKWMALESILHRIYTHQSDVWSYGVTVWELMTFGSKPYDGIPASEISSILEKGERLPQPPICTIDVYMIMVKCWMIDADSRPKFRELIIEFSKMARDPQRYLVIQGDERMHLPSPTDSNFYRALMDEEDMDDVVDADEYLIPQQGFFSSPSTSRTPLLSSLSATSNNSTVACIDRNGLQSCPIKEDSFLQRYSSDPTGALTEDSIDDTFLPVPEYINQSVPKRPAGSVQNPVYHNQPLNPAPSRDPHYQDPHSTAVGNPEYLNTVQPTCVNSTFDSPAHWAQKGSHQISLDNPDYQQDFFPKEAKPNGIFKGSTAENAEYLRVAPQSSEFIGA

With `COc1c(F)cccc1Nc1c(-c2ncnc3[nH]ncc23)[nH]c2c1C(=O)NCC2` [Compound 158, 3-((3-fluoro-2-methoxyphenyl)amino)-2-(1H-pyrazolo[3,4-d]pyrimidin-4-yl)-1,5,6,7-tetrahydro-4H-pyrrolo[3,2-c]pyridin-4-one], the results for the half-inhibitory concentration (IC50) (on EGFR WT (Ba/F3 cells); in experiment [1]; in experiment [2]) were over 1000 nM, over 1000 nM and 100 to 1000 nM, respectively.

On to `COc1c(F)cccc1Nc1c(-c2snc3ccccc23)[nH]c2c1C(=O)NCC2` [Compound 157, 2-(benzo[c]isothiazol-3-yl)-3-((3-fluoro-2-methoxyphenyl)amino)-1,5,6,7-tetrahydro-4H-pyrrolo[3,2-c]pyridin-4-one], for which the IC50 on EGFR WT (Ba/F3 cells) was 100 to 1000 nM; in experiment [1] it was over 1000 nM; in experiment [2] it was over 1000 nM.

Take `COc1nc2c(-c3[nH]c4c(c3Nc3cccc(F)c3OC)C(=O)NCC4)ccnc2cc1C` [Compound 682, 3-[(3-fluoro-2-methoxyphenyl)amino]-2-(6-methoxy-7-methyl-1,5-naphthyridin-4-yl)-1H,5H,6H,7H-pyrrolo[3,2-c]pyridin-4-one]: the half-inhibitory concentration (IC50) (at EGFR WT (Ba/F3 cells); in experiment [1]; in experiment [2]) was under 100 nM throughout.

`COc1c(F)cccc1Nc1c(-c2ccnc(-c3ccccc3)c2)[nH]c2c1C(=O)NCC2` [Compound 159, 3-((3-fluoro-2-methoxyphenyl)amino)-2-(2-phenylpyridin-4-yl)-1,5,6,7-tetrahydro-4H-pyrrolo[3,2-c]pyridin-4-one]: the figures for the 50% inhibitory concentration (IC50) (on EGFR WT (Ba/F3 cells); in experiment [1]; in experiment [2]) were 100 to 1000 nM, over 1000 nM and over 1000 nM, respectively.

In the case of `COc1c(Cl)cccc1Nc1c(-c2ccnc(N)n2)[nH]c2c1C(=O)NC[C@@H]2C[C@@H]1COCCO1` [Compound 532, (7S)-2-(2-aminopyrimidin-4-yl)-3-[(3-chloro-2-methoxyphenyl)amino]-7-[(2R)-1,4-dioxan-2-ylmethyl]-1H,5H,6H,7H-pyrrolo[3,2-c]pyridin-4-one], the IC50 at EGFR WT (Ba/F3 cells) is over 1000 nM; in experiment [1], under 100 nM; in experiment [3], under 100 nM; in experiment [4] it was under 100 nM; in experiment [2], under 100 nM.

As for `C=CC(=O)N1CCC2(CC1)CNC(=O)c1c2[nH]c(-c2ccncc2F)c1Nc1cccc(F)c1CC` [Compound 557, 3′-[(2-ethyl-3-fluorophenyl)amino]-2′-(3-fluoropyridin-4-yl)-1-(prop-2-enoyl)-5′,6′-dihydro-1′H-spiro[piperidine-4,7′-pyrrolo[3,2-c]pyridin]-4′-one], the half-inhibitory concentration (IC50) (at EGFR WT (Ba/F3 cells); in experiment [1]; in experiment [3]; in experiment [4]; in experiment [2]) was under 100 nM in each case.

With `COc1c(F)cccc1Nc1c(-c2ncnc3sccc23)[nH]c2c1C(=O)NCC2` [compound 138], the IC50 (on EGFR WT (Ba/F3 cells); in experiment [1]; in experiment [2]) was over 1000 nM in each case.

For `COc1c(F)cccc1Nc1c(-c2ncnc3c2ccn3C)[nH]c2c1C(=O)NCC2` [Compound 150, 3-((3-fluoro-2-methoxyphenyl)amino)-2-(7-methyl-7H-pyrrolo[2,3-d]pyrimidin-4-yl)-1,5,6,7-tetrahydro-4H-pyrrolo[3,2-c]pyridin-4-one], the concentration for half-maximal inhibition (IC50) (on EGFR WT (Ba/F3 cells); in experiment [1]; in experiment [2]) was over 1000 nM each time.

On to `COc1cc2nccc(-c3[nH]c4c(c3Nc3cccc(F)c3C)C(=O)NCC4)c2nc1OC` [Compound 808, 2-(6,7-dimethoxy-1,5-naphthyridin-4-yl)-3-[(3-fluoro-2-methylphenyl)amino]-1H,5H,6H,7H-pyrrolo[3,2-c]pyridin-4-one], for which the IC50 (on EGFR WT (Ba/F3 cells); in experiment [3]; in experiment [4]; in experiment [5]; in experiment [2]) was under 100 nM each time.
